Source: ChEMBL document CHEMBL4507274 (2021)

Legend:
[1] = target: Mitogen-activated protein kinase 10 (Homo sapiens) (UniProt P53779); conditions: Compound concentration 100.0 nM
[2] = target: Ribosomal protein S6 kinase alpha-4 (Homo sapiens) (UniProt O75676); conditions: Compound concentration 100.0 nM
[3] = target: Death-associated protein kinase 2 (Homo sapiens) (UniProt Q9UIK4); conditions: Compound concentration 100.0 nM
[4] = test system: Receptor-type tyrosine-protein kinase FLT3 (Homo sapiens), P36888 [K663Q]; conditions: Compound concentration 100.0 nM
[5] = target: Dual specificity tyrosine-phosphorylation-regulated kinase 1B (Homo sapiens) (UniProt Q9Y463); conditions: Compound concentration 100.0 nM
[6] = target: Mitogen-activated protein kinase 15 (Homo sapiens) (UniProt Q8TD08); conditions: Compound concentration 100.0 nM
[7] = target: Tyrosine-protein kinase Fgr (Homo sapiens) (UniProt P09769); conditions: Compound concentration 100.0 nM
[8] = target: Non-receptor tyrosine-protein kinase TYK2 (Homo sapiens) (UniProt P29597); conditions: Compound concentration 100.0 nM
[9] = target: Cyclin-dependent kinase 11B (Homo sapiens) (UniProt P21127); conditions: Compound concentration 100.0 nM
[10] = target: Serine/threonine-protein kinase PAK 5 (Homo sapiens) (UniProt Q9P286); conditions: Compound concentration 100.0 nM
[11] = target: Protein kinase C eta type (Homo sapiens) (UniProt P24723); conditions: Compound concentration 100.0 nM
[12] = target: T1, Ephrin type-B receptor 4 (Homo sapiens) (UniProt P54760); conditions: Compound concentration 100.0 nM
T1 sequence (whole entry): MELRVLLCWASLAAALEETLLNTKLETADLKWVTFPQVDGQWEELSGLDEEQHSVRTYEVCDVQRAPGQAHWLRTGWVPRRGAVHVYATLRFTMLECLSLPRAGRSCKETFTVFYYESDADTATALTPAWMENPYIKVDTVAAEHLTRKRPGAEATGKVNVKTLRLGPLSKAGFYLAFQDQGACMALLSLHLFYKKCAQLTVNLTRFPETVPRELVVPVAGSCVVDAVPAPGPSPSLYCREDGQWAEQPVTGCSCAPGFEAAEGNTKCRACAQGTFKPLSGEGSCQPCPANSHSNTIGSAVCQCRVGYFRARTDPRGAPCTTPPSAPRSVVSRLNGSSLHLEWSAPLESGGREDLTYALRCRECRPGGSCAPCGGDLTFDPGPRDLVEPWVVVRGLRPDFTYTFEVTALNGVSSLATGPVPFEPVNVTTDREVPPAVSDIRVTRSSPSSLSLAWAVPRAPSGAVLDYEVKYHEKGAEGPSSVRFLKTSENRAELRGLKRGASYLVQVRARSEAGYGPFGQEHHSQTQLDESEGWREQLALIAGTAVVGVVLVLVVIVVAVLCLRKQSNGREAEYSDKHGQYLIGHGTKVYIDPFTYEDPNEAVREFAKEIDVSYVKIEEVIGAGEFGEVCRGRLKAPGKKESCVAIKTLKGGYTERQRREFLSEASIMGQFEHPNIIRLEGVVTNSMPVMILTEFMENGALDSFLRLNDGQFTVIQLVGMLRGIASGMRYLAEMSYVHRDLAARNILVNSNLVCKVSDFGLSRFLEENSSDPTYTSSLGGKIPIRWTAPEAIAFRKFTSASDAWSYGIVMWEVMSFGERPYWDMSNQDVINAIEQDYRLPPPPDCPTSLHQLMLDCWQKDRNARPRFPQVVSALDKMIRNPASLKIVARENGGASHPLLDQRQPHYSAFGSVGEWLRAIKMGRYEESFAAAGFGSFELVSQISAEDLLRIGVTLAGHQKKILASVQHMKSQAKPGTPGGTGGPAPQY

[13] = target: Serine/threonine-protein kinase 4 (Homo sapiens) (UniProt Q13043); conditions: Compound concentration 100.0 nM
[14] = target: Serine/threonine-protein kinase ULK3 (Homo sapiens) (UniProt Q6PHR2); conditions: Compound concentration 100.0 nM
Chain of Serine/threonine-protein kinase ULK3 (Homo sapiens) (Q6PHR2 whole entry): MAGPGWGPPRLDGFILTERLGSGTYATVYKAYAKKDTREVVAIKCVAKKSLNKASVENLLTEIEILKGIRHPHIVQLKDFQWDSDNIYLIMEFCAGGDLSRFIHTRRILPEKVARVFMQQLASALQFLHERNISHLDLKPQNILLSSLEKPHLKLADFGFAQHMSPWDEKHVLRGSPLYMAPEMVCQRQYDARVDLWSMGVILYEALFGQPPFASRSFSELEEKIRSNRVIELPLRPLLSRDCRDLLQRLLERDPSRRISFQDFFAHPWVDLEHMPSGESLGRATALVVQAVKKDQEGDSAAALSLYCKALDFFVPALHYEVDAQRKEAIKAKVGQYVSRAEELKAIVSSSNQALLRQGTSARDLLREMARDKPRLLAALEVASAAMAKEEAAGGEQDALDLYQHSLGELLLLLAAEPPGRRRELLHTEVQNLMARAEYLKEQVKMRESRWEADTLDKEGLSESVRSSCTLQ

[15] = target: Tyrosine-protein kinase JAK2 (Homo sapiens) (UniProt O60674); conditions: Compound concentration 100.0 nM
[16] = target: Activin receptor type-1-like (Homo sapiens) (UniProt P37023); conditions: Compound concentration 100.0 nM
Chain of Activin receptor type-1-like (Homo sapiens) (P37023 whole entry): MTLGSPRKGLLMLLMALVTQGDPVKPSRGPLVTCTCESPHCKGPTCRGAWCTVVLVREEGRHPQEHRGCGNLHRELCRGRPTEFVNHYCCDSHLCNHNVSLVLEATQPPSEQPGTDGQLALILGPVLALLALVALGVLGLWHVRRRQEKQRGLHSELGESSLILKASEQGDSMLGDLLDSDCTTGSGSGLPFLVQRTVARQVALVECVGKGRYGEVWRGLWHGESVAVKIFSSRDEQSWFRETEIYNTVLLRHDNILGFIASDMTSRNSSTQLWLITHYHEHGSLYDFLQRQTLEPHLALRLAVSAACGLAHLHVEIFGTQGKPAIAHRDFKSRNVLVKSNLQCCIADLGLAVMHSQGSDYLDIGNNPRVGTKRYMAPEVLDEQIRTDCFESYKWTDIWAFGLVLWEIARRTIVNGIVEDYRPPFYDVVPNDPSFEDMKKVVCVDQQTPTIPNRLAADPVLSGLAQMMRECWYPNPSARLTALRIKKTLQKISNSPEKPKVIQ

[17] = target: D(1B) dopamine receptor (Homo sapiens) (UniProt P21918); conditions: Compound concentration 10.0 uM
[18] = target: Mitogen-activated protein kinase kinase kinase kinase 3 (Homo sapiens) (UniProt Q8IVH8); conditions: Compound concentration 100.0 nM
[19] = test system: Tyrosine-protein kinase ABL1 (Homo sapiens), P00519 [F317L]; conditions: Compound concentration 100.0 nM
Chain of Tyrosine-protein kinase ABL1 (Homo sapiens), P00519 [F317L] (P00519 whole entry F317L): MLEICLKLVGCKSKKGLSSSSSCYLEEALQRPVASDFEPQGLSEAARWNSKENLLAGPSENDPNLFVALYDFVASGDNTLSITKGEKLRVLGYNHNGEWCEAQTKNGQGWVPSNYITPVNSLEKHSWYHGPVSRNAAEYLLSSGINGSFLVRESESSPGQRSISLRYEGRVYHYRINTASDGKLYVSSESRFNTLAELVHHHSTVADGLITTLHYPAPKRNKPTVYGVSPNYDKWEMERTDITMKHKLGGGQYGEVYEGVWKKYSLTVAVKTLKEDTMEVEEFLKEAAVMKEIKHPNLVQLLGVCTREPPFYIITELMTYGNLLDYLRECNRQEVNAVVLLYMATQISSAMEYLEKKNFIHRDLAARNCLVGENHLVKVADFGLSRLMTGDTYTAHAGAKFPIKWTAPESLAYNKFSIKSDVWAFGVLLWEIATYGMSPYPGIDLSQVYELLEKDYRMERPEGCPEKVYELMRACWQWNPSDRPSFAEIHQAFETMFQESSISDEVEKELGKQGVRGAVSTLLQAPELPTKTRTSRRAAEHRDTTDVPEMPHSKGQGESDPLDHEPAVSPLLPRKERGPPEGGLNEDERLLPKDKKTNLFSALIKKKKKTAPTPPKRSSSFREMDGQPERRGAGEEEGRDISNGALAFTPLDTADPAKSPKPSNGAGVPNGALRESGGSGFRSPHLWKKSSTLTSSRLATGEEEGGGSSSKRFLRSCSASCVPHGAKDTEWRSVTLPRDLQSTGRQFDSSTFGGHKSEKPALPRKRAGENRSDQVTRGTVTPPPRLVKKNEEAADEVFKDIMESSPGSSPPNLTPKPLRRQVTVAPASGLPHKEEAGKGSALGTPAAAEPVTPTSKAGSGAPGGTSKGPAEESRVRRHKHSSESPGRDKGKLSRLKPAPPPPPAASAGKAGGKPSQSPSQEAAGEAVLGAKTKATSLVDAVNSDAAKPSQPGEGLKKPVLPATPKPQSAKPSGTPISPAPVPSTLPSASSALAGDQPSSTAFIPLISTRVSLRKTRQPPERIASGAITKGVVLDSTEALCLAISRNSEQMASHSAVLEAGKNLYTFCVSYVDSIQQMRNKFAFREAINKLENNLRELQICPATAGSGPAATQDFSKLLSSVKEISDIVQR

[20] = target: Ephrin type-A receptor 5 (Homo sapiens) (UniProt P54756); conditions: Compound concentration 100.0 nM
[21] = target: Serine/threonine-protein kinase 35 (Homo sapiens) (UniProt Q8TDR2); conditions: Compound concentration 100.0 nM
[22] = target: Mu-type opioid receptor (Homo sapiens) (UniProt P35372); conditions: Compound concentration 10.0 uM
Chain of Mu-type opioid receptor (Homo sapiens) (P35372 whole entry): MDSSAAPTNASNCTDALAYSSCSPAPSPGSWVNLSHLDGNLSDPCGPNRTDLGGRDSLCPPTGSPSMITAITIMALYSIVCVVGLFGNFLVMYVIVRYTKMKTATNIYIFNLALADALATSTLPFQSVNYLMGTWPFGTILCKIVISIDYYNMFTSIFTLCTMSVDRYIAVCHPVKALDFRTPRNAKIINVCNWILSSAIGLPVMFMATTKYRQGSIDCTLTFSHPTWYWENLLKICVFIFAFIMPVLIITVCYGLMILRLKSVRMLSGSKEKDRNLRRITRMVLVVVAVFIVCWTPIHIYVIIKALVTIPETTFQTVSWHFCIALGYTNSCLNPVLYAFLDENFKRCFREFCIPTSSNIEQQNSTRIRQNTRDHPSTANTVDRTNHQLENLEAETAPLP

[23] = target: Dual serine/threonine and tyrosine protein kinase (Homo sapiens) (UniProt Q6XUX3); conditions: Compound concentration 100.0 nM
[24] = target: Serine/threonine-protein kinase D3 (Homo sapiens) (UniProt O94806); conditions: Compound concentration 100.0 nM
Chain of Serine/threonine-protein kinase D3 (Homo sapiens) (O94806 whole entry): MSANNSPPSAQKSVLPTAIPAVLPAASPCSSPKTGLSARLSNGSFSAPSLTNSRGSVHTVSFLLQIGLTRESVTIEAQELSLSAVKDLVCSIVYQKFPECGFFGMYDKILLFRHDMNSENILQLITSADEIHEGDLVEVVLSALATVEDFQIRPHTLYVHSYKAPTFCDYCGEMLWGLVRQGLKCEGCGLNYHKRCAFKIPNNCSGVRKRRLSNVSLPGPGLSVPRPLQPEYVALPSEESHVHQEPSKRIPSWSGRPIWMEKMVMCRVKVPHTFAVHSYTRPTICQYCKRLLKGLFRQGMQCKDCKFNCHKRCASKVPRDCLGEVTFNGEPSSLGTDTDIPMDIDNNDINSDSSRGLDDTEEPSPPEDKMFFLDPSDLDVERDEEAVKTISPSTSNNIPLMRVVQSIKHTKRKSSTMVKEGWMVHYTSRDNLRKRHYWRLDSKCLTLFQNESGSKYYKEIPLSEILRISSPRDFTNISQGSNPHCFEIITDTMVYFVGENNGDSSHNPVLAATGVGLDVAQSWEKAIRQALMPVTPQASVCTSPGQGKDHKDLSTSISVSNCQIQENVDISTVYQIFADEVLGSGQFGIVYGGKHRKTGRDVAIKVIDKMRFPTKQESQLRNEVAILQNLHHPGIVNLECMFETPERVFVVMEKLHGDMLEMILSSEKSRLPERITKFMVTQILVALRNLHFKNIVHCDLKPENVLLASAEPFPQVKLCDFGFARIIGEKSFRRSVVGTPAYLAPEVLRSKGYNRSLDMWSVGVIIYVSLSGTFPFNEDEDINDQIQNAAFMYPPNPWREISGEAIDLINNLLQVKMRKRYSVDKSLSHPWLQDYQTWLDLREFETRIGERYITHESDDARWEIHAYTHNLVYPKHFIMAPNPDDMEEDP

[25] = target: Ribosomal protein S6 kinase alpha-3 (Homo sapiens) (UniProt P51812); conditions: Compound concentration 100.0 nM
[26] = target: STE20/SPS1-related proline-alanine-rich protein kinase (Homo sapiens) (UniProt Q9UEW8); conditions: Compound concentration 100.0 nM
[27] = target: D(4) dopamine receptor (Homo sapiens) (UniProt P21917); conditions: Compound concentration 10.0 uM
[28] = target: Platelet-derived growth factor receptor alpha (Homo sapiens) (UniProt P16234); conditions: Compound concentration 100.0 nM
[29] = target: Cyclin-dependent kinase 17 (Homo sapiens) (UniProt Q00537); conditions: Compound concentration 100.0 nM
[30] = target: Homeodomain-interacting protein kinase 2 (Homo sapiens) (UniProt Q9H2X6); conditions: Compound concentration 100.0 nM
[31] = test system: ALK tyrosine kinase receptor (Homo sapiens), Q9UM73 [C1156Y]; conditions: Compound concentration 100.0 nM
[32] = target: Tyrosine-protein kinase ABL2 (Homo sapiens) (UniProt P42684); conditions: Compound concentration 100.0 nM
Chain of Tyrosine-protein kinase ABL2 (Homo sapiens) (P42684 whole entry): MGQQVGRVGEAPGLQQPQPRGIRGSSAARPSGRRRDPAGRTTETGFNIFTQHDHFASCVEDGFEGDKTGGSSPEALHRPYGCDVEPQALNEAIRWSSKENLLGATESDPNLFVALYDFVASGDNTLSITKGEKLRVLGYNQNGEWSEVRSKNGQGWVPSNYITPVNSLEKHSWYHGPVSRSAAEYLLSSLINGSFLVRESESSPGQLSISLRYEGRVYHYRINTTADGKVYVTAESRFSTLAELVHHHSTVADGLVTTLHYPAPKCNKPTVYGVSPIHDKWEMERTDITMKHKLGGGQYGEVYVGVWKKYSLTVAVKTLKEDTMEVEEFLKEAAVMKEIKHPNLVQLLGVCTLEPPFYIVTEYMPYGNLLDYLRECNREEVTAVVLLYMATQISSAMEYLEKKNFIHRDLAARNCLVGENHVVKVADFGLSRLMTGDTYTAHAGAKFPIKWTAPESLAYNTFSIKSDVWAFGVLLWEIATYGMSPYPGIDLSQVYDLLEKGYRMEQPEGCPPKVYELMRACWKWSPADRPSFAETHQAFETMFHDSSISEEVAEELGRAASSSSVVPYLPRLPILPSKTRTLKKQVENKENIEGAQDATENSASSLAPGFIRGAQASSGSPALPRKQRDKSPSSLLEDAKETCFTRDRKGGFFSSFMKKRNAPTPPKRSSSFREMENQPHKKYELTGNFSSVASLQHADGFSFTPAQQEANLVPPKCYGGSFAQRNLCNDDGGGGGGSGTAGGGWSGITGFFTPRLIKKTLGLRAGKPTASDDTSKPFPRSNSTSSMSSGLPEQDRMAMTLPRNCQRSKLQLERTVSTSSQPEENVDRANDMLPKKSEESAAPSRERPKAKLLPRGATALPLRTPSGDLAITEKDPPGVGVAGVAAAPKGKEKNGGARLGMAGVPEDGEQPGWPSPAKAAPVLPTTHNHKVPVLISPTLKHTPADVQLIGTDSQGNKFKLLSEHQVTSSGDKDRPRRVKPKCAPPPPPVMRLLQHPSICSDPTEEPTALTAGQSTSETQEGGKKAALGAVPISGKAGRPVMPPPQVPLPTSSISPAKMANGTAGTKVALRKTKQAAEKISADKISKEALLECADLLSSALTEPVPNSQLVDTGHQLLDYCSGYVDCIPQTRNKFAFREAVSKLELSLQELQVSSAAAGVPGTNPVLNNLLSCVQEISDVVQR

Chain of Mitogen-activated protein kinase 10 (Homo sapiens) (P53779 whole entry): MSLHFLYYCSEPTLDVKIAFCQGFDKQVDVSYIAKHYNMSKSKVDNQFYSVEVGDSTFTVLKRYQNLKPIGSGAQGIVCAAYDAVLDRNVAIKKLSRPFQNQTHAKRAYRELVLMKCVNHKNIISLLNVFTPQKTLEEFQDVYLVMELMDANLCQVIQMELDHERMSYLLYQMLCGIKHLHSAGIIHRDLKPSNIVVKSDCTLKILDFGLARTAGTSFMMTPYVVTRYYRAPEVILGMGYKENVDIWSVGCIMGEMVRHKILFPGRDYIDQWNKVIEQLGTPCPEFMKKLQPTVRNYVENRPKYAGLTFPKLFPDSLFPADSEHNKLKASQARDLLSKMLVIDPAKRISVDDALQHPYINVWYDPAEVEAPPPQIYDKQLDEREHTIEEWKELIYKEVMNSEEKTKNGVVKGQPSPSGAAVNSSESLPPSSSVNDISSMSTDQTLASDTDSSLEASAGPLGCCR

Cc1c[nH]c2nccc(Oc3c(F)cc(Nc4cc(Cl)nc(N)n4)cc3F)c12 [BAY-549]
inactive: residual activity [1] 81% | residual activity [2] 83% | residual activity [3] 89% | residual activity [4] 87% | residual activity [5] 100% | residual activity [6] 100% | residual activity [7] 100% | residual activity [8] 78% | residual activity [9] 80% | residual activity [10] 92% | residual activity [11] 74% | residual activity [12] 100% | residual activity [13] 100% | residual activity [14] 88% | residual activity [15] 75% | residual activity [16] 100% | inhibition [17] 21.9% | residual activity [18] 91% | residual activity [19] 74% | residual activity [20] 92% | residual activity [21] 94% | inhibition [22] -0.03% | residual activity [23] 67% | residual activity [24] 100% | residual activity [25] 79% | residual activity [26] 94% | inhibition [27] 11.4% | residual activity [28] 84% | residual activity [29] 81% | residual activity [30] 90% | residual activity [31] 100% | residual activity [32] 86%

Cn1cc(Cl)c2c(Oc3c(F)cc(Nc4cc(Cl)nc(N)n4)cc3F)ccnc21 [BAY-4900]
inactive: residual activity [1] 80% | residual activity [2] 100% | residual activity [3] 100% | residual activity [4] 100% | residual activity [5] 82% | residual activity [6] 100% | residual activity [7] 100% | residual activity [8] 81% | residual activity [9] 100% | residual activity [10] 90% | residual activity [11] 98% | residual activity [12] 100% | residual activity [13] 94% | residual activity [14] 85% | residual activity [15] 72% | residual activity [16] 93% | inhibition [17] 9.8% | residual activity [18] 100% | residual activity [19] 74% | residual activity [20] 100% | residual activity [21] 99% | inhibition [22] -9.98% | residual activity [23] 98% | residual activity [24] 100% | residual activity [25] 71% | residual activity [26] 100% | inhibition [27] 11.3% | residual activity [28] 98% | residual activity [29] 100% | residual activity [30] 100% | residual activity [31] 100% | residual activity [32] 99%
